Test results: ChEMBL document CHEMBL5634150, “Design, synthesis and biological evaluation of novel dihydroquinolin-4(1H)-one derivatives as novel tubulin polymerization inhibitors” (Eur J Med Chem, 2023)
Values after ≈ are worked out from the molar mass of the structure shown.

What was measured:
[1] = tested on: A549; test: Antiproliferative activity against human A549 cells assessed as inhibition of cell growth at 0.01 uM measured after 72 hrs by MTT assay relative to control; format: functional
[2] = tested on: MDA-MB-231; test: Antiproliferative activity against human MDA-MB-231 cells assessed as inhibition of cell growth measured after 72 hrs by MTT assay; format: functional, cell-based; conditions: MDA-MB-231, 72 h
[3] = tested on: HepG2; test: Antiproliferative activity against human HepG2 cells assessed as inhibition of cell growth measured after 72 hrs by MTT assay; format: functional, cell-based; conditions: HepG2, 72 h
[4] = tested on: A549; test: Antiproliferative activity against human A549 cells assessed as inhibition of cell growth at 1 uM measured after 72 hrs by MTT assay relative to control; format: functional
[5] = tested on: K562; test: Antiproliferative activity against human K562 cells assessed as inhibition of cell growth measured after 72 hrs by MTT assay; format: functional, cell-based; conditions: K562, 72 h
[6] = tested on: A549; test: Antiproliferative activity against human A549 cells assessed as inhibition of cell growth measured after 72 hrs by MTT assay; format: functional, cell-based; conditions: A549, 72 h
[7] = Antiproliferative activity against human HFL1 cells assessed as inhibition of cell growth measured after 72 hrs by MTT assay; format: toxicity, cell-based
[8] = tested on: A549; test: Antiproliferative activity against human A549 cells assessed as inhibition of cell growth at 0.1 uM measured after 72 hrs by MTT assay relative to control; format: functional
[9] = Metabolic stability in mouse plasma assessed as compound remaining at 1 uM and measured at 3 hrs by LC-MS/MS analysis; format: ADME, cell-free; conditions: read-out: Stability
[10] = Metabolic stability in mouse liver microsomes assessed as intrinsic clearance at 100 uM measure upto 60 mins in presence of NADPH by LC-MS/MS analysis; format: ADME, Microsome; conditions: 1 h
[11] = Metabolic stability in mouse plasma assessed as half life at 1 uM and measured upto 3 hrs by LC-MS/MS analysis; format: ADME, cell-free
[12] = Metabolic stability in mouse liver microsomes assessed as half life at 100 uM measure upto 60 mins in presence of NADPH by LC-MS/MS analysis; format: ADME, Microsome
[13] = tested on: A549/TR; test: Antiproliferative activity against human A549/Taxol cells assessed as inhibition of cell growth measured after 72 hrs by MTT assay; format: functional, cell-based
[14] = Aqueous solubility of the compound by HPLC analysis; format: physicochemical; conditions: aqueous (not further specified)
[15] = tested on: H22; test: Antitumor activity against mouse H22 cells allografted in mouse model assessed as tumor growth inhibition at 20 mg/kg,iv administered once daily for 3 weeks relative to control; format: functional; conditions: H22, 504 h, read-out: TGI
[16] = Resistance index, ratio of IC50 for antiproliferative activity against human A549/Taxol cells to IC50 for antiproliferative activity against human A549 cells; format: functional

Structure (SMILES) | inhibition at 0.01 µM [1] [%] | IC50 [2] [nM] | IC50 [3] [nM] | inhibition at 1 µM [4] [%] | IC50 [5] [nM] | IC50 [6] [nM] | IC50 at 72 h [7] [nM] | inhibition at 0.1 µM [8] [%] | other results
COc1cc2c(c(OC)c1OC)C(=O)CCN2c1ccc2c(c1)OCCO2 | 35.6 | 237 | 163 | 72.4 | 81 | 216 | 303 | 44.9 | –
COc1cc(N2CCC(=O)c3c2cc(OC)c(OC)c3OC)cc(OC)c1OC | 12.3 | – | – | 28.4 | – | – | – | 19.4 | –
COc1cc2c(c(OC)c1OC)C(=O)CCN2c1ccccc1 | 6.13 | – | – | 31.1 | – | – | – | 12.3 | –
COc1ccc2c(c1)C(=O)CCN2c1ccc(OC)c(O)c1 | 32.5 | – | – | 66.6 | – | – | – | 40.2 | –
COc1ccc(N2CCC(=O)c3c2cc(OC)c(OC)c3OC)cn1 | 18.8 | – | – | 45.3 | – | – | – | 30.4 | –
COc1cc2c(c(OC)c1OC)C(=O)CCN2c1ccc(C)cc1 | 21 | – | – | 64.1 | – | – | – | 41.7 | –
COc1ccc(N2CCC(=O)c3cc(OC)c(OC)cc32)cc1O | 20.4 | 902 | 672 | 73.3 | 226 | 280 | 3300 | 44.2 | –
COc1ccc(N2CCC(=O)c3c2cc(OC)c(OC)c3OC)cc1OC | 11 | – | – | 41 | – | – | – | 17.6 | –
COc1cc2c(c(OC)c1OC)C(=O)CCN2c1c[nH]c2ccccc12 | 16.6 | – | – | 51.7 | – | – | – | 31.4 | –
COc1ccc(N2CCC(=O)c3ccccc32)cc1O | 38.2 | – | – | 58.5 | – | – | – | 54.7 | –
COc1cc2c(c(OC)c1OC)C(=O)CCN2c1ccc2cc[nH]c2c1 | 22.4 | 2890 | 2310 | 71.1 | 902 | 288 | 9750 | 38.2 | –
COc1cc2c(c(OC)c1OC)C(=O)CCN2c1ccc2ccn(C)c2c1 | 13.2 | 1140 | 648 | 61 | 147 | 170 | 2760 | 53.4 | –
COc1cc2c(cc1O)N(c1cc(OC)c(OC)c(OC)c1)CCC2=O | 33.5 | – | – | 54.4 | – | – | – | 45.6 | –
COc1ccc(/C=C\c2cc(OC)c(OC)c(OC)c2)cc1O [COMBRETASTATIN A4] | 76.9 | 20 | 33 | 78.4 | 4 | 11 | 91 | 76.2 | remaining at 3 h, 1 µM [9]: 97.8%; CLH [10]: > 277 µL/min/mg; half-life at 1 µM [11]: > 3 h; half-life at 100 µM [12]: < 5 min; IC50 [13]: 76 nM; solubility [14]: 0.96 µg/mL (≈ 3.03 µM); inhibition in vivo at 20 mg/kg [15]: 59.2%
COc1cc2c(c(OC)c1OC)C(=O)CCN2c1cccc2[nH]ccc12 | 11.6 | – | – | 35.9 | – | – | – | 31.2 | –
C[C@]12CC[C@H]3[C@@H](CCC4=CC(=O)CC[C@@]43C)[C@@H]1CC[C@@H]2O [TESTOSTERONE] | – | – | – | – | – | – | – | – | CLH [10]: 436 µL/min/mg
COc1ccc(N2CCC(=O)c3cc4c(cc32)OCO4)cc1O | 12.7 | – | – | 28 | – | – | – | 14.3 | –

Structure (SMILES) | inhibition at 0.01 µM [1] [%] | IC50 [2] [nM] | IC50 [3] [nM] | inhibition at 1 µM [4] [%] | IC50 [5] [nM] | IC50 [6] [nM] | IC50 at 72 h [7] [nM] | inhibition at 0.1 µM [8] [%] | other results
COc1ccc(N2CCC(=O)c3c2cc(OC)c(OC)c3OC)cc1 | 34 | 107 | 77 | 74.5 | 34 | 72 | 370 | 69.3 | –
CC(=O)Oc1ccc(C(c2ccc(OC(C)=O)cc2)c2ccccn2)cc1 [BISACODYL] | – | – | – | – | – | – | – | – | remaining at 3 h, 1 µM [9]: 0.003%
COc1cc2c(c(OC)c1OC)C(=O)CCN2c1ccc2c(c1)OCO2 | 22.6 | – | – | 65.3 | – | – | – | 44.8 | –
CC(=O)O[C@H]1C(=O)[C@@]2(C)[C@H]([C@H](OC(=O)c3ccccc3)[C@]3(O)C[C@H](OC(=O)[C@H](O)[C@@H](NC(=O)c4ccccc4)c4ccccc4)C(C)=C1C3(C)C)[C@]1(OC(C)=O)CO[C@@H]1C[C@@H]2O [PACLITAXEL] | – | – | – | – | – | 22 | – | – | Ratio IC50 [16]: 27.36; IC50 [13]: 602 nM
COc1ccc(CN2CCC(=O)c3c2cc(OC)c(OC)c3OC)cc1O | 13 | – | – | 17.7 | – | – | – | 13 | –
COc1cc2c(c(OC)c1OC)C(=O)CCN2c1ccc(O)cc1 | 9.57 | – | – | 29.9 | – | – | – | 15.1 | –
COc1ccc(N2CCCc3c2cc(OC)c(OC)c3OC)cc1O | 35 | 1060 | 668 | 81 | 297 | 276 | 2660 | 45 | –
COc1cc(N2CCC(=O)c3cc4c(cc32)OCO4)cc(OC)c1OC | 19.9 | – | – | 46.6 | – | – | – | 29.2 | –
COc1cc2c(c(OC)c1OC)C(=O)CCN2c1cccc(O)c1 | 15.8 | – | – | 50.1 | – | – | – | 36.8 | –
COc1cc2c(c(OC)c1OC)C(=O)CCN2c1ccc2c(ccn2C)c1 | 54.3 | 102 | 72 | 79.2 | 25 | 11 | 102 | 78.6 | –
COc1cc2c(c(OC)c1OC)C(=O)CCN2c1ccc2[nH]ccc2c1 | 30.1 | 912 | 855 | 72 | 182 | 305 | 2980 | 69 | –
COc1cc2c(c(OC)c1OC)C(=O)CCN2Cc1ccc(C(F)(F)F)cc1 | 6.29 | – | – | 28.6 | – | – | – | 22.1 | –
COc1cc2c(c(OC)c1OC)C(=O)CCN2Cc1ccccc1 | 8.31 | – | – | 23.2 | – | – | – | 6.72 | –
COc1cc2c(c(OC)c1OC)C(=O)CCN2c1cccc2c1ccn2C | 19.2 | 33 | 21 | 74.2 | 7 | 63 | 99 | 56 | –
COc1ccc(N2CCC(=O)c3c2cc(OC)c(OC)c3OC)cc1O | 43.9 | 96 | 32 | 68.4 | 30 | 34 | 284 | 68.3 | –
COc1cc2c(c(OC)c1OC)C(=O)CCN2Cc1ccc(F)cc1 | 12 | – | – | 32.1 | – | – | – | 16.3 | –
COc1cc2c(c(OC)c1OC)C(=O)CCN2c1ccc(O)c(O)c1 | 21.9 | – | – | 35 | – | – | – | 22.9 | –
